Legend:
Colo 205 = test: Assay for cytotoxic effect (MTT); type: cell-based, human; conditions: for IC50: Homo sapiens, sensitive Colo 205 cells, MTT, 24 h
Description: (§1) The human colon adenocarcinoma cell lines, the Colo 205 (ATCC-CCL-222) doxorubicin-sensitive parent and Colo 320/MDR-LRP (ATCC-CCL-220.1) resistant to anticancer agents expressing ABCB1, were purchased from LGC Promochem (Teddington, UK). The cells were cultured in RPMI-1640 medium supplemented with 10% heat-inactivated fetal bovine serum (FBS), 2 mM L-glutamine, 1 mM Na-pyruvate, 100 mM Hepes, nystatin, and a penicillin–streptomycin mixture in concentrations of 100 U/L and 10 mg/L, respectively. The MRC-5 (ATCC CCL-171) human embryonic lung fibroblast cell line (LGC Promochem) was cultured in EMEM medium, supplemented with 1% nonessential amino acid (NEAA) mixture, 10% heat-inactivated FBS, 2 mM L-glutamine, 1 mM Na-pyruvate, nystatin, and a penicillin–streptomycin mixture in concentrations of 100 U/L and 10 mg/L, respectively. The cell lines were incubated in a humidified atmosphere (5% CO2, 95% air) at 37 °C.
(§2) The effects of increasing concentrations of the compounds on cell growth were tested in 96-well flat-bottomed microtiter plates. The two-fold serial dilutions of the tested compounds were made starting with 100 μM. Then, 10^4 of human colonic adenocarcinoma cells in 100 μL of the medium (RPMI-1640) were added to each well, except for the medium control wells. The adherent human embryonic lung fibroblast cell line (10^4/well) was seeded in EMEM medium in 96-well flat-bottomed microtiter plates for 4 h before the assay. The serial dilutions of the compounds were made in a separate plate starting with 100 μM, and then transferred to the plates containing the adherent corresponding cell line. Culture plates were incubated at 37 °C for 24 h; at the end of the incubation period, 20 μL of MTT (thiazolyl blue tetrazolium bromide) solution (from a 5 mg/mL stock solution) were added to each well. After incubation at 37 °C for 4 h, 100 μL of sodium dodecyl sulfate (SDS) solution (10% SDS in 0.01 M HCl) were added to each well and the plates were further incubated at 37 °C overnight. Cell growth was determined by measuring the optical density (OD) at 540 nm (ref. 630 nm) with a Multiscan EX ELISA reader (Thermo Labsystems, Cheshire, WA, USA). Inhibition of cell growth was expressed as IC50 values, defined as the inhibitory dose that reduces the growth of the cells exposed to the tested compounds by 50%. IC50 values and the SD of triplicate experiments were calculated using GraphPad Prism software version 5.00 for Windows with nonlinear regression curve fit (GraphPad Software, San Diego, CA, USA; www.graphpad.com). The statistical analysis of data was performed using GraphPad Prism software version 5.00, applying the two-tailed t-test.

Colo 320 [1] = test: Assay for cytotoxic effect (MTT); type: cell-based, human; conditions: for IC50: Homo sapiens, resistant Colo 320 cells, MTT, 24 h
Description: as §1, §2

MRC-5 = test: Assay for cytotoxic effect (MTT); type: cell-based, human; conditions: for IC50: Homo sapiens, MRC5, normal MRC-5 embryonal fibroblast cells, MTT, 24 h
Description: as §1, §2

Colo 320 [2] = test: Checkerboard combination assay with doxorubicin; type: cell-based, human; conditions: for Fraction affected: Colo 320
Description: A checkerboard microplate method was applied to study the effect of drug interactions between the compound 8 and the chemotherapeutic drug doxorubicin. The assay was carried out on Colo 320 colon adenocarcinoma cell line. The final concentration of the compounds and doxorubicin used in the combination experiment was chosen in accordance with their cytotoxicity towards this cell line. The dilutions of doxorubicin were made in a horizontal direction for the 100 μL volume, and the dilutions of the compounds were made vertically in the microtiter plate for the 50 μL volume. Then, 6 × 10^3 of Colo 320 cells in 50 μL of the medium were added to each well, except for the medium control wells. The plates were incubated for 72 h at 37 °C in 5% CO2 atmosphere. The cell growth rate was determined after MTT staining. At the end of the incubation period, 20 μL of MTT solution (from a stock solution of 5 mg/mL) were added to each well. After incubation at 37 °C for 4 h, 100 μL of SDS solution (10% in 0.01 M HCI) were added to each well and the plates were further incubated at 37 °C overnight. OD was measured at 540 nm (ref. 630 nm) with a Multiscan EX ELISA reader. Combination index (CI) values at 50% of the growth inhibition dose (ED50) were determined using CompuSyn software (ComboSyn, Inc., Paramus, NJ, USA) to plot four to five data points at each ratio. CI values were calculated by means of the median-effect equation, according to the Chou–Talalay method, where CI < 1, CI = 1, and CI > 1 represent synergism, additive effect (or no interaction), and antagonism, respectively.

P-glycoprotein (P-gp) = target: T1, P-glycoprotein (P-gp) (Homo sapiens, UniProt P08183); test: Rhodamine 123 accumulation assay (flow cytometry); type: cell-based; design: key to FAR (fluorescence activity ratio): FAR = (Colo320 treated/control)/(Colo205 treated/control); conditions: 20 μM; for FSC / SSC: Colo 320; for FAR (fluorescence activity ratio): Colo 320, rhodamine-123
T1 construct: Colo 320/MDR-LRP (ATCC-CCL-220.1) resistant to anticancer agents expressing ABCB1
Description: The cell numbers of the human colon adenocarcinoma cell lines were adjusted to 2 × 10^6 cells/mL, re-suspended in serum-free RPMI 1640 medium, and distributed in 0.5 mL aliquots into Eppendorf centrifuge tubes. The tested compounds were added at concentrations of 2 or 20 μM, and the samples were incubated for 10 min at room temperature. Tariquidar was applied as positive control at 0.2 μM. DMSO at 2% v/v was used as solvent control. Next, 10 µL (5.2 µM final concentration) of the fluorochrome and ABCB1 substrate rhodamine 123 (Sigma) were added to the samples and the cells were incubated for a further 20 min at 37 °C, washed twice, and re-suspended in 1 mL PBS for analysis. The fluorescence of the cell population was measured with a PartecCyFlow® flow cytometer (Partec, Münster, Germany). The fluorescence activity ratio was calculated as the quotient between the FL-1 of the treated/untreated resistant Colo 320 cell line over the treated/untreated sensitive Colo 205 cell line according to the following equation [31]:(1) FAR = Colo320treated/Colo320control/Colo205treated/Colo205control

[3] = system: Escherichia coli ATCC 25922; test: Minimum inhibitory concentration by microdilution method; type: cell-based; conditions: ATCC25922, broth dilution, 18 h
[4] = system: Salmonella enterica serovar Typhimurium 14028s; test: as above; type: cell-based; conditions: broth dilution, 18 h
[5] = system: Staphylococcus aureus ATCC 25,923; test: as above; type: cell-based; conditions: ATCC25, broth dilution, 18 h
[6] = system: S. aureus 27,213 (methicillin and ofloxacin resistant clinical isolate); test: as above; type: cell-based; conditions: Staphylococcus aureus; broth dilution, 18 h
DPPH assay = conditions: 30 min; 550 nm
Description: A method based on the description of Miser-Salihoglu E. et al. was applied. The examination was performed on a FLUOstar Optima BMG Labtech plate-reader with 96-well microplates. The samples were measured in a DMSO environment with the volume of 150 µL per sample resulting 1 mg/mL concentration. Every well contained 50 µL (100 µM) of this base solution for the absorbance measurement (30 min; 550 nm). […] For data evaluation GraphPad Prism 6.0 software was utilized. The DPPH (2,2′-diphenyl-1-picrylhydrazyl) reagent necessary for the process was supplied by from Sigma-Aldrich Hungary.

ORAC assay = conditions: Trolox equivalent
Description: A method based on the description of Mielnik et al. was applied. In summary, 20 µL of the samples were used in 0.01 mg/mL concentration with a 96-well black microplate. In each well, 60 µL of AAPH (12 mM final concentration) and 120 µL of fluorescein solution (70 nM final concentration) were added. The fluorescence alteration of each sample was measured for 3 h with 1.5 min cycle intervals by a FLUOstar Optima BMG Labtech plate-reader. Trolox ((±)-6-hydroxy-2,5,7,8-tetramethyl-chromane-2-carboxylic acid) was used as a standard. Both Trolox and AAPH was supplied by Sigma-Aldrich, Hungary, while Fluorescein was provided by Fluka analytical, Japan. For data analysis, the GraphPad Prism 6.0 software was used. The results were expressed as mmol Trolox equivalent per g of dry material (mmloTE/g).

T1 sequence (P08183 whole entry): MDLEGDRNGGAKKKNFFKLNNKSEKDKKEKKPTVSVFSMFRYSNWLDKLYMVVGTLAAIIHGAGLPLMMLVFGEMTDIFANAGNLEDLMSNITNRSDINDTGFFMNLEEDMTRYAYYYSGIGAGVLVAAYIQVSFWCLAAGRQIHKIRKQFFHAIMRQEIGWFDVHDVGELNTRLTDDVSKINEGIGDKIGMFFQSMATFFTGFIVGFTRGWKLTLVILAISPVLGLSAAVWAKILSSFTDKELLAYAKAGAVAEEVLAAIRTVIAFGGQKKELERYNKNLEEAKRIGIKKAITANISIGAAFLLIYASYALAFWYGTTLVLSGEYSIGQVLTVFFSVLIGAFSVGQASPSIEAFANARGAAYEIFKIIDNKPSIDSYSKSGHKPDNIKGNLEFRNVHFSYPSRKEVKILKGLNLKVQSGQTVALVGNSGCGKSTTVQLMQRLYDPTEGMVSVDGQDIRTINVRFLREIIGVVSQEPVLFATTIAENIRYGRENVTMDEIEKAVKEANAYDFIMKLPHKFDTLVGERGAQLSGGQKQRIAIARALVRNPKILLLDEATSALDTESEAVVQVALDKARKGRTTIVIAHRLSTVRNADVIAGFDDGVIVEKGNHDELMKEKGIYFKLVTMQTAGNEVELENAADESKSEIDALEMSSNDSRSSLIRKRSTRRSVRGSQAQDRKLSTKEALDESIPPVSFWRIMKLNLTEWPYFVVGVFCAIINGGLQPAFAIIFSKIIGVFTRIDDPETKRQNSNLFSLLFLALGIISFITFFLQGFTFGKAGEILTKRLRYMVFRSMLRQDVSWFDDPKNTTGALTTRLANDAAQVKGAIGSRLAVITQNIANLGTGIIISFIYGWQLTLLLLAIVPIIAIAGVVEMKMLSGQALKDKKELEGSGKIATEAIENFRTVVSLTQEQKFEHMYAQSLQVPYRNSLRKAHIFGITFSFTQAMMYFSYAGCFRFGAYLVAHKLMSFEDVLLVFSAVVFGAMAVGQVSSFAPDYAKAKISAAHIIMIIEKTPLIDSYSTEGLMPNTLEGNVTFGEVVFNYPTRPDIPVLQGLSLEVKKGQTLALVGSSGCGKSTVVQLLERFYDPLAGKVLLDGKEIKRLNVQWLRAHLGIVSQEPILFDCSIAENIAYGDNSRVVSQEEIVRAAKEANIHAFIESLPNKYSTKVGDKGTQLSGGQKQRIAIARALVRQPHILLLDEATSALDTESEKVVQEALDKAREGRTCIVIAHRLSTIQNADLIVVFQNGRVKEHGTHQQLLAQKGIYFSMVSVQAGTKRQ

Row | SMILES | IC50 (Colo 205) [µM] | IC50 (Colo 320 [1]) [µM] | IC50 (MRC-5) [µM] | FSC (P-glycoprotein (P-gp)) | SSC (P-glycoprotein (P-gp)) | FAR (fluorescence activity ratio) (P-glycoprotein (P-gp)) | MIC [3] [µM] | MIC [4] [µM] | MIC [5] [µM] | MIC [6] [µM] | other results
1 | COc1cccc2c1C(=O)c1c(O)c3c(c(O)c1C2=O)C[C@@](O)(C(=O)CO)C[C@@H]3O[C@H]1C[C@H](N)[C@H](O)[C@H](C)O1 [Doxorubicin, doxorubicin] | 2.46 ± 0.26 | 7.44 ± 0.2 | > 20 | – | – | – | – | – | – | – | Fraction affected (Colo 320 [2]; Doxo alone 0.135 uM): 0.6475; Fraction affected (Colo 320 [2]; Doxo alone 0.269 uM): 0.7257; Fraction affected (Colo 320 [2]; Doxo alone 0.539 uM): 0.8038; Fraction affected (Colo 320 [2]; Doxo alone 1.078 uM): 0.9263; Fraction affected (Colo 320 [2]; Doxo alone 4.311 uM): 0.9749; Dose Reduction Index (DRI) for experimental values (Colo 320 [2]; Fa 0.6829, combination FuTo III + Doxo): 1.374; Dose Reduction Index (DRI) for experimental values (Colo 320 [2]; Fa 0.741889, combination FuTo III + Doxo): 0.937; Dose Reduction Index (DRI) for experimental values (Colo 320 [2]; Fa 0.80679, combination FuTo III + Doxo): 0.702; Dose Reduction Index (DRI) for experimental values (Colo 320 [2]; Fa 0.912987, combination FuTo III + Doxo): 0.475; Dm (median-effect dose) in the combination (Colo 320 [2]; FuTo III:Doxo ratio 11:1, dose of the named component, Colo 320, 72 h): 0.04246 µM; Dm (median-effect dose), drug alone (Colo 320 [2]; single drug, Colo 320, 72 h, CompuSyn): 0.08504 µM
2 | CC(C)=CC[C@H](O)[C@@H](C)[C@H]1CC[C@@]2(C)C3=C(CC[C@]12C)[C@@]1(C)CC[C@H](O)[C@@](C)(C(=O)O)[C@@H]1CC3 [Compound 6, senexdiolic acid] | > 100 | > 100 | > 100 | 2074 | 861 | 1.027 | > 100 | > 100 | > 100 | > 100 | –
3 | O=C1O[C@H]([C@@H](O)CO)C(O)=C1O [Ascorbic acid, ascorbic acid] | – | – | – | – | – | – | – | – | – | – | DPPH EC50 (DPPH assay): 0.89 ± 0.02 µg/mL; ORAC Activity (ORAC assay): 6.94 ± 0.58 mmol TE/g
4 | CC(C)=CC[C@H](O)[C@@H](C)[C@H]1CC[C@@]2(C)C3=C(CC[C@]12C)[C@@]1(C)CC[C@@](C)(C(=O)O)[C@@H]1CC3 [Compound 1, 22S-hydroxy-8,24-dien-3-norlanosta-28-oic acid] | > 100 | > 100 | > 100 | 2005 | 851 | 1.139 | > 100 | > 100 | > 100 | > 100 | cytotoxic effect (in words) (Colo 205; Colo 205, applied concentration up to 100 μM): did not show any significant effect; cytotoxic effect (in words) (Colo 320 [1]; Colo 320, applied concentration up to 100 μM): did not show any significant effect; cytotoxic effect (in words) (MRC-5; MRC-5, applied concentration up to 100 μM): did not show any significant effect
